Converted amounts (≈) assume the structure as drawn. “And” between values parts separate entries of the source, which are not always exact repeats. Equal values may be shown once. Read-outs that look alike come from different tables or passages of the source.
How the values were obtained:
[1] = target: T1, CDK9 (Homo sapiens, UniProt P50750+Q96SW2); assay: CDK9 degradation potency (DC50) of VIP152-based degraders; format: cell-based; conditions: VIP152-based series
T1 construct: endogenous in cells
Description: (§1) Through amide coupling using I-ethyl-3-carbodiimide hydrochloride (EDC.HCl), the alkynyl derivatives of 4.16, 4.29 and 4.30 were synthesized. Using these VIP152-derivatives, degraders 4.31, 4.33 and 4.34 were synthesized using click chemistry. Degrader 4.32 was also synthesized using amide coupling conditions with (1-[Bis([…])methylene]-1H-1,2,3-triazolo[4,5-b]pyridinium 3-oxide hexafluorophosphate (HATU) and the carboxylic acid 4.28. Scheme 7 illustrates the synthesis of this initial series. The series was evaluated for cytotoxicity against MOLM13 cells (IC50) and for their CDK9 degradation potency (DC50). The results are provided in Table 3.

[2] = tested on: MOLM13 cells; assay: Cytotoxicity against MOLM13 cells; format: cell-based; conditions: MOLM13 cells, read-out: IC50
Description: as §1

[3] = Kinetic solubility assay; conditions: for solubility at 1.5 h: Solubility (μM); for solubility at 1.5 h / Solubility: kinetic solubility, PBS pH 7.4
Procedure: Kinetic Solubility Assay. Kinetic solubility (KS) was measured according to Millipore protocol PC2445 EN00. Test compounds were weighed and diluted with DMSO to 10 mM. From the stock solutions as well as blank (100% DMSO) was taken 17.5 μL and diluted to 500 μM with 332.5 μL of 100 mM phosphate Buffered Saline (PPBS) at pH 7.4 in a 96-well quartz plate. From the 500 μM solutions was taken 150 μL and dispensed into a 96-well Millipore filter plate (Product number: MSSLBPC10). In the quartz plate, serial dilutions were performed down to 0.5 μM using the 100 mM PBS solution, leaving 100 μL of each test sample at 11 different concentrations, representing standards. These steps were performed in triplicate, at minimum, for each test compound. Both plates were shaken on an orbital shaker at 150 rpm for 1.5 hours. The contents of the filter plate were filtered and 100 μL of the filtrate from each well was dispensed into the quartz plate containing standards. The quartz plate was then analyzed using a UV plate reader where absorbance was measured at the relevant wavelength for each compound. After blank subtraction, for each test sample, solubility was determined based on the optical density of filtered samples and the equations derived from the corresponding linear standard curve.

[4] = Chromatographic log D determination (log k′80); format: physicochemical; conditions: chromatographic log D, PLRP-S column, pH 7.72
Procedure: Chromatographic Log D Determination. Test samples were prepared from 10 mM stock solutions in DMSO, to make 122 μM solutions in acetonitrile. Retention times were determined on a Shimadzu High Performance Liquid Chromatography (HPLC) system with Agilent PLRP-S column, 100 Å, 5 um particle size, 50×4.6 mm (part no.: PL1512-1500) with 1 mL/min flow rate. A 65 mM aqueous solution of ammonium acetate was prepared in water and diluted with acetonitrile to give 0.1% ammonium acetate 20:80 acetonitrile solution with pH 7.72. Eluents were detected with UV spectrophotometry at 337 nm. As a standard set, the retention times of β-estradiol, nifedipine, quinoline, phenol and 2-nitrophenol were determined (log k′80) and the dead time was extrapolated based on the reported log k′80 values originally reported by Caron et. al (log k′80*). The average value of the dead time for the standard set was 0.3001 minutes. Therefore, for consistency, 0.3 minutes was used as the dead time for all test samples. Experiments were performed in triplicate with a maximum percent standard deviation of 6.85%.

[5] = tested on: MV411 cells; assay: MTS cytotoxicity assay against MV411 cells; format: cell-based; conditions: Homo sapiens, MV4-11
Procedure: The obtained compounds were tested in biological experiments to measure their potency in inhibiting the growth of AML cells and in their degradation of CDK9. These measurements are reported as half-maximum growth inhibitory and half-maximum degradation concentrations, IC50s and DC50s, respectively. Maximum percent degradation (Dmax) values were also obtained during the CDK9 degradation assessments. The common MTS assay was used to acquire the IC50 values, while the DC50 values were obtained using an automated western blot experiment. These values are presented in Table 2, along with pIC50 (log(nM IC50)) to more accurately reflect the differences/lack thereof in in vitro cytotoxicity. The notation “N:N*” represents the number of linker atoms on each side of the rigid triazole ring for a given degrader. Predicted log D values, calculated using the ChemAxon […], are also provided for each degrader. To characterize the physicochemical properties of the new degrader series, two additional assays were performed: a kinetic aqueous solubility assay and the chromatographic log D experiment described earlier. Aqueous solubility is shown in μM while experimentally determined log D is shown as log k′80. Details regarding the execution of each experiment are provided below.

[6] = Homo sapiens, MOLM-13, cytotoxicity
[7] = phosphate buffered saline, pH 7.4, aqueous buffer, kinetic from dmso stock

T1 sequence (P50750 whole entry): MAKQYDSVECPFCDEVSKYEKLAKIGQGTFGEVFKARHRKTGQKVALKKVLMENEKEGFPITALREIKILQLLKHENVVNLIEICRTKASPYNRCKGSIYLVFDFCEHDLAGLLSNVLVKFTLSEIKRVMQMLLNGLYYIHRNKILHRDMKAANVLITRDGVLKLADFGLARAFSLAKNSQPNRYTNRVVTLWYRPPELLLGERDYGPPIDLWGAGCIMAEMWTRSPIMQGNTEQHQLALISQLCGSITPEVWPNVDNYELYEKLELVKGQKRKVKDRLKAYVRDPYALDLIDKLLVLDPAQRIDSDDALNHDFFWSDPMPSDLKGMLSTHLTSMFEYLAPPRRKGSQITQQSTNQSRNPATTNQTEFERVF
T1 sequence (O60563 whole entry partner): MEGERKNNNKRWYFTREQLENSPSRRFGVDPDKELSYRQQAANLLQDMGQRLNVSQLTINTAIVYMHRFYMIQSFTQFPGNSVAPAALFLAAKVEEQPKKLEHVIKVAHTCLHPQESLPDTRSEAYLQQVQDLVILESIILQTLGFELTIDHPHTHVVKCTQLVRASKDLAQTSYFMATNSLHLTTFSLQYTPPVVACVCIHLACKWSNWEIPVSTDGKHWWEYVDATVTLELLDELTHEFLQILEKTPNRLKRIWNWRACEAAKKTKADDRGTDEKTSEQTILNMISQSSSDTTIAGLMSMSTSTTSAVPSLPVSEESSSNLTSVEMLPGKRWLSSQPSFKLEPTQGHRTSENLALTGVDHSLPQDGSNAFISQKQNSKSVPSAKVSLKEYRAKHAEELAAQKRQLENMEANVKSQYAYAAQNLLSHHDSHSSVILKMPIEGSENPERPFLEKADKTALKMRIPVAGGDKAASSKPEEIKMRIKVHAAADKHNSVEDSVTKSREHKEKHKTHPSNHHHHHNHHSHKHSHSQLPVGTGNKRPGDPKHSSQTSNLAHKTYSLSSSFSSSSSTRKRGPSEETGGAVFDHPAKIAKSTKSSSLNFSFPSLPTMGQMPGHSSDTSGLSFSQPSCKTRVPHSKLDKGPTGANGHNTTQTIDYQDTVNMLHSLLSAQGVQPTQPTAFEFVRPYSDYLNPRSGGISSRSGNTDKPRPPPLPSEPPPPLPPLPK
T1 sequence (Q96SW2 whole entry): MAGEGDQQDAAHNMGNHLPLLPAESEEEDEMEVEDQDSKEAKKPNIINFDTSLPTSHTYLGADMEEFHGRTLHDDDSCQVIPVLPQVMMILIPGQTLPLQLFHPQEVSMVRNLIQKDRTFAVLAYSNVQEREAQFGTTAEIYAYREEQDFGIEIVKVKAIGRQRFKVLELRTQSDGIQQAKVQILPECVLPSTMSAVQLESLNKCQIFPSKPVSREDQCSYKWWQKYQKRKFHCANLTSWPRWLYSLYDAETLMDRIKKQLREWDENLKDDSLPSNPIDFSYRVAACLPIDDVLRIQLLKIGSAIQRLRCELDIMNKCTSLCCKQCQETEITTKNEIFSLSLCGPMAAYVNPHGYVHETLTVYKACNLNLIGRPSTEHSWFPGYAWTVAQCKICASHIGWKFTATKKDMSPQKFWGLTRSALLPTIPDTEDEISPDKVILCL
T1 sequence (Q16531 whole entry partner): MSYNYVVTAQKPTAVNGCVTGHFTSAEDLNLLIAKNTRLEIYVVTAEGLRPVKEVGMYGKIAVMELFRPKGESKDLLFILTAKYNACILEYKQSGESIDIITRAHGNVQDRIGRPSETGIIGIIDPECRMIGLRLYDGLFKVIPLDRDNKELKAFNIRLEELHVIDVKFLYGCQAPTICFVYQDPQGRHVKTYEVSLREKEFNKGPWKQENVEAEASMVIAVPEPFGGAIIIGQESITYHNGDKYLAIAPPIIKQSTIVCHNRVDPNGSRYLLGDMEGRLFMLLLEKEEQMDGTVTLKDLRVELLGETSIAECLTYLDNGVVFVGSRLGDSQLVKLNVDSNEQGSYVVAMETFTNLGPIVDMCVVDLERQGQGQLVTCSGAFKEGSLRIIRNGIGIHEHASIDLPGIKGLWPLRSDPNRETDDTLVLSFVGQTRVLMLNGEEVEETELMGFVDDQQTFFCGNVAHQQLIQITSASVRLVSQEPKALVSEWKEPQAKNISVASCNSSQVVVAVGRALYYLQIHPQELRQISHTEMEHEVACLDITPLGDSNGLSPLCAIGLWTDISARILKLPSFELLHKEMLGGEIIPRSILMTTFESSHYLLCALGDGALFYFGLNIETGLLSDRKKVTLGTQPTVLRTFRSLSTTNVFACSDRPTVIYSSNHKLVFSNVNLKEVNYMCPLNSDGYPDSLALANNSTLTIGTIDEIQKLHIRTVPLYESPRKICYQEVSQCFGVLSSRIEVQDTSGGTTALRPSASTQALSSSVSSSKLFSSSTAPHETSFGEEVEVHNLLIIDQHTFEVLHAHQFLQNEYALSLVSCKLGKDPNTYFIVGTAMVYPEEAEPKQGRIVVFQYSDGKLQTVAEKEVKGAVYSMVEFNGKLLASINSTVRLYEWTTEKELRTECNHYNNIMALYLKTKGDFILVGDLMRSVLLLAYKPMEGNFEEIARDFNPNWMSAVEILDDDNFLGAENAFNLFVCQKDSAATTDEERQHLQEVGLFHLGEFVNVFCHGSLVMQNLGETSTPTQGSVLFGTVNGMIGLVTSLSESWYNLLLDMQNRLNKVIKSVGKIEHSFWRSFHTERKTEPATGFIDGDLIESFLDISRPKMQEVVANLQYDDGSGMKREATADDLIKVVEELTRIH

Row | SMILES | DC50 [1] [nM] | IC50 [2, 6] [nM] | solubility at 1.5 h [3, 7] [µM] | logk′80 [4] | other results
1 | COc1cc(F)ccc1-c1cc(Nc2cc(CS(C)(=O)=NC(=O)CN3CCC(c4cn(CC(=O)N5CCN(CC#Cc6cccc7c6C(=O)N(C6CCC(=O)NC6=O)C7=O)CC5)nn4)CC3)ccn2)ncc1F (stereo not shown) [Compound 4.61, 2-(4-(1-(2-(4-(3-(2-(2,6-dioxopiperidin-3-yl)-1,3-dioxoisoindolin-4-yl)prop-2-yn-1-yl)piperazin-1-yl)-2-oxoethyl)-1H-1,2,3-triazol-4-yl)piperidin-1-yl)-N-(((2-((5-fluoro-4-(4-fluoro-2-methoxyphenyl)pyridin-2-yl)amino)pyridin-4-yl)methyl)(methyl)(oxo)-16-sulfaneylidene)acetamide] | 170 | 340 | 1.8 (≈ 1.83 µg/mL) | – | –
2 | COc1cc(F)ccc1-c1cc(Nc2cc(CS(C)(=O)=NC(=O)CCCCCCCCCCNC(=O)CNc3cccc4c3C(=O)N(C3CCC(=O)NC3=O)C4=O)ccn2)ncc1F (stereo not shown) [Compound 4.32, 11-(2-((2-(2,6-dioxopiperidin-3-yl)-1,3-dioxoisoindolin-4-yl)amino)acetamido)-N-(((2-((5-fluoro-4-(4-fluoro-2-methoxyphenyl)pyridin-2-yl)amino)pyridin-4-yl)methyl)(methyl)(oxo)-16-sulfaneylidene)undecanamide] | 120 | 140 | – | 0.28 | –
3 | COc1cc(F)ccc1-c1cc(Nc2cc(CS(C)(=O)=NC(=O)CCc3cn(CCCOc4cccc5c4C(=O)N(C4CCC(=O)NC4=O)C5=O)nn3)ccn2)ncc1F (stereo not shown) [Compound 4.33, 3-(1-(3-((2-(2,6-dioxopiperidin-3-yl)-1,3-dioxoisoindolin-4-yl)oxy)propyl)-1H-1,2,3-triazol-4-yl)-N-(((2-((5-fluoro-4-(4-fluoro-2-methoxyphenyl)pyridin-2-yl)amino)pyridin-4-yl)methyl)(methyl)(oxo)-16-sulfaneylidene)propenamide] | 170 | 190 | – | 0.15 | –
4 | COc1cc(F)ccc1-c1cc(Nc2cc(CS(C)(=O)=NC(=O)CN3CCC(c4cn(C5CN(C(=O)CNc6cccc7c6C(=O)N(C6CCC(=O)NC6=O)C7=O)C5)nn4)CC3)ccn2)ncc1F (stereo not shown) [Compound 4.59, 2-(4-(1-(1-((2-(2,6-dioxopiperidin-3-yl)-1,3-dioxoisoindolin-4-yl)glycyl)azetidin-3-yl)-1H-1,2,3-triazol-4-yl)piperidin-1-yl)-N-(((2-((5-fluoro-4-(4-fluoro-2-methoxyphenyl)pyridin-2-yl)amino)pyridin-4-yl)methyl)(methyl)(oxo)-16-sulfaneylidene)acetamide] | 110 | – | – | 0.09 | IC50 ([2]; cytotoxicity): 210 nM; Solubility [3]: 5.0 µM (≈ 4.83 µg/mL)
5 | COc1cc(F)ccc1-c1cc(Nc2cc(CS(C)(=O)=NC(=O)C3CCCN(Cc4cn(CC5CCN(c6cccc7c6C(=O)N(C6CCC(=O)NC6=O)C7=O)CC5)nn4)C3)ccn2)ncc1F (stereo not shown) [Compound 4.77, 1˜ {[1-({1-[2-(2,6-dioxopiperidin-3-yl)-1,3-dioxo-2,3-dihydro-1H-isoindol-4-yl]piperidin-4-yl}methyl)-1H-1,2,3-triazol-4-yl]methyl}-N-{[(2-{[5-fluoro-4-(4-fluoro-2-methoxyphenyl)pyridin-2-yl]amino}pyridin-4-yl)methyl](methyl)oxo-λ^6-sulfanylidene}piperidine-3-carboxamide] | 260 | 640 | 8.9 (≈ 8.46 µg/mL) | – | –
6 | COc1cc(F)ccc1-c1cc(Nc2cc(CS(C)(=O)=NC(=O)C3CCCN(Cc4cn(CC(=O)N5CCN(CCCc6cccc7c6C(=O)N(C6CCC(=O)NC6=O)C7=O)CC5)nn4)C3)ccn2)ncc1F (stereo not shown) [Compound 4.74, 1-({1-[2-(4-{3-[2-(2,6-dioxopiperidin-3-yl)-1,3-dioxo-2,3-dihydro-1H-isoindol-4-yl]propyl}piperazin-1-yl)-2-oxoethyl]-1H-1,2,3-triazol-4-yl}methyl)-N-{[(2-{[5-fluoro-4-(4-fluoro-2-methoxyphenyl)pyridin-2-yl]amino}pyridin-4-yl)methyl](methyl)oxo-λ^6-sulfanylidene}piperidine-3-carboxamide] | – | – | – | 0.15 | –
7 | COc1cc(F)ccc1-c1cc(Nc2cc(CS(C)(=O)=NC(=O)CN3CCC(N4CCC(C#Cc5ccc6c(c5)CN(C5CCC(=O)NC5=O)C6=O)CC4)CC3)ccn2)ncc1F (stereo not shown) [Compound 4.103, 2-(4-{2-[2-(2,6-dioxopiperidin-3-yl)-1-oxo-2,3-dihydro-1H-isoindol-5-yl]ethynyl}-[1,4′-bipiperidin]-1′-yl)-N-{[(2-{[5-fluoro-4-(4-fluoro-2-methoxyphenyl)pyridin-2-yl]amino}pyridin-4-yl)methyl](methyl)oxo-26-sulfanylidene}acetamide] | – | – | – | 0.15 | IC50 ([2]; cytotoxicity): 120 nM; Solubility [3]: 29 µM and 29.1 µM
8 | COc1cc(F)ccc1-c1cc(Nc2cc(CS(C)(=O)=NC(=O)CN3CCC(N4CCN(CC#Cc5ccc6c(c5)CN(C5CCC(=O)NC5=O)C6=O)CC4)CC3)ccn2)ncc1F (stereo not shown) [Compound 4.104, 2-[4-(4-{3-[2-(2,6-dioxopiperidin-3-yl)-1-oxo-2,3-dihydro-1H-isoindol-5-yl]prop-2-yn-1-yl}piperazin-1-yl)piperidin-1-yl]-N-{[(2-{[5-fluoro-4-(4-fluoro-2-methoxyphenyl)pyridin-2-yl]amino}pyridin-4-yl)methyl](methyl)oxo-16-sulfanylidene}acetamide] | – | > 1000 | 51.6 (≈ 46.1 µg/mL) | – | IC50 ([2]; cytotoxicity): 1100 nM; solubility kinetic at 1.5 h [3, 7]: > 50 µM
9 | O=C(NC1CCNCC1)c1n[nH]cc1NC(=O)c1c(Cl)cccc1Cl [AT7519, 4-(2,6-dichlorobenzamido)-N-(piperidin-4-yl)-1H-pyrazole-3-carboxamide, reference compound] | – | – | – | – | EC50 ([5]; Table 1, cytotoxicity MV411 cells): 200 nM; IC50 ([5]; defined as log(nM IC50), MV411, read-out: pIC50 (converted)): 126 nM; IC50 ([5]; growth inhibition, MV411 cells, MTS, read-out: IC50): 119 nM
10 | COc1cc(F)ccc1-c1cc(Nc2cc(CS(C)(=O)=NC(=O)CCCCc3cn(CCCOc4cccc5c4C(=O)N(C4CCC(=O)NC4=O)C5=O)nn3)ccn2)ncc1F (stereo not shown) [Compound 4.31, 5-(1-(3-((2-(2,6-dioxopiperidin-3-yl)-1,3-dioxoisoindolin-4-yl)oxy)propyl)-1H-1,2,3-triazol-4-yl)-N-(((2-((5-fluoro-4-(4-fluoro-2-methoxyphenyl)pyridin-2-yl)amino)pyridin-4-yl)methyl)(methyl)(oxo)-16-sulfaneylidene)pentanamide] | – | 170 | < 5 | 0.17 | –
11 | COc1cc(F)ccc1-c1cc(Nc2cc(CS(C)(=O)=NC(=O)CN3CCN(Cc4cn(C5CN(c6cccc7c6C(=O)N(C6CCC(=O)NC6=O)C7=O)C5)nn4)CC3)ccn2)ncc1F (stereo not shown) [Compound 4.50, 2-(4-((1-(1-(2-(2,6-dioxopiperidin-3-yl)-1,3-dioxoisoindolin-4-yl)azetidin-3-yl)-11H-1,2,3-triazol-4-yl)methyl)piperazin-1-yl)-N-(((2-((5-fluoro-4-(4-fluoro-2-methoxyphenyl)pyridin-2-yl)amino)pyridin-4-yl)methyl)(methyl)(oxo)-16-sulfaneylidene)acetamide] | 930 | 1540 | ~15 (≈ 13.8 µg/mL) | – | Solubility [3]: 13.9 µM (≈ 12.8 µg/mL)
12 | COc1cc(F)ccc1-c1cc(Nc2cc(CS(C)(=N)=O)ccn2)ncc1F (racemic) [Compound 4.16, ((2-((5-fluoro-4-(4-fluoro-2-methoxyphenyl)pyridin-2-yl)amino)pyridin-4-yl)methyl)(imino)(methyl)4-sulfa-none, reference compound] | – | 60 | 403 (≈ 163 µg/mL) | 0.15 | –
